This is an account of results in patent US6869957B1, “Non-peptide tachykinin receptor antagonists” (Eli Lilly and Company, priority 1993, dated 2005).

pIC50: −log10 of the molar value.

T1 sequence (P25103 whole entry): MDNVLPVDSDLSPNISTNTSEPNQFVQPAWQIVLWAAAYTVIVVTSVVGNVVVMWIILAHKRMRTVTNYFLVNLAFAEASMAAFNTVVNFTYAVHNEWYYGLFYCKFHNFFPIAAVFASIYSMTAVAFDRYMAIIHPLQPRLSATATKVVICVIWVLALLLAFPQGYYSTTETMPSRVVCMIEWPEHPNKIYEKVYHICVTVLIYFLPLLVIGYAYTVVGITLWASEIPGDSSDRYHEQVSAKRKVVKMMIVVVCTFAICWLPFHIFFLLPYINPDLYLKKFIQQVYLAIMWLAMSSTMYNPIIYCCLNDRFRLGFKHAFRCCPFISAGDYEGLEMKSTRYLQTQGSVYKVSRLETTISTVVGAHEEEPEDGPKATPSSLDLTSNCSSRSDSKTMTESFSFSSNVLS

The first assay addresses T1, NK-1 receptor (Homo sapiens, UniProt P25103).
T1 construct: endogenous in cells; host or cells: IM9 cells (human cell line), whole cells
As to the kind of experiment: NK-1 Receptor Binding Assay (125I-labeled substance P, IM9 cells). Conditions: @ 1 μM. How it is done: The biological activity of the compounds of the present invention was evaluated employing an initial screening assay which rapidly and accurately measured the binding of the tested compound to known NK-1 and NK-2 receptor sites. Assays useful for evaluating tachykinin receptor antagonists are well known in the art.
NK-1 Receptor Binding Assay
Radioreceptor binding assays were performed using a derivative of a previously published protocol.
The IM9 cell line is a well-characterized and readily available human cell line.
The reaction was terminated by filtration through a glass fiber filter harvesting system using filters previously soaked for 20 minutes in 0.1% polyethylenimine. Specific binding of labeled substance P was determined in the presence of 20 nM unlabeled ligand.
On to `COc1ccccc1CNCC(Cc1c[nH]c2ccccc12)NC(=O)CN1CCN(c2ccccc2)CC1` (centres unmarked) [Example 6], for which the “NK-1 percent inhibition of binding” value came out at 62% @. For `COc1ccccc1CN(CC(C)(Cc1c[nH]c2ccccc12)NC(=O)CBr)C(=O)OC(C)(C)C` (centres unmarked) [Example 134], the “NK-1 percent inhibition of binding” value is on record as 14% @. The same measure, in the same setting: the figure for `COc1ccccc1CN(C[C@H](Cc1c[nH]c2ccccc12)NC(=O)OCc1ccccc1)C(C)=O` [Example 93] is 16% @.

The assay is the same for the next values; noted with them: @ 1 μM; read-out: NK-1 percent inhibition of binding.
Take `NCC(Cc1c[nH]c2ccccc12)NC(=O)CN1CCN(c2ccccc2)CC1` (centres unmarked) [Example 150, 1-amino-3-(1H-indol-3-yl)-2-[N-(2-((4-phenyl)piperazin-1-yl)acetyl)amino]propane]: the inhibition at 1 µM is 45%.

Still in this assay, the particulars now being: @ 5 μM.
For the compound `NCC(NC(c1ccccc1)(c1ccccc1)c1ccccc1)c1ccc(Cl)c(Cl)c1` (centres unmarked) [Example 172], the “NK-1 percent inhibition of binding” value is recorded as 46% @.

Staying with this assay, now noted: inhibits fifty percent of binding of 125I-substance P to IM9 cells.
`COc1ccccc1CN(CC(Cc1c[nH]c2c(C)cccc12)NC(=O)CN1CCC(N2CCCCC2)CC1)C(C)=O` (centres unmarked) [Example 128] had a pIC50 of 8.96. As for `O=C(CN1CCN(c2ccccc2)CC1)NC(CNCc1ccccc1C(F)(F)F)Cc1c[nH]c2ccccc12` (centres unmarked) [Example 3], the pIC50 was 7.54. Same read-out and setting: as for `CCCCN(CC(Cc1c[nH]c2ccccc12)NC(=O)CN1CCN(c2ccccc2)CC1)C(C)=O` (centres unmarked) [Example 39], the figure is 6.86.

With `CC(=O)N(Cc1ccccc1C(F)(F)F)CC(Cc1c[nH]c2ccccc12)NC(=O)CN1CCN(c2ccccc2)CC1` (centres unmarked) [Example 15], the pIC50 was 8.68.

`COc1ccccc1CN(CC(Cc1c[nH]c2ccccc12)NC(=O)CN1CCN(C(C)C)CC1)C(C)=O` (centres unmarked) [Example 73] showed a pIC50 of 9.00.

Compound `CC(=O)N(Cc1ccccc1Cl)CC(Cc1c[nH]c2ccccc12)NC(=O)CN1CCC(N2CCCCC2)CC1` (centres unmarked) [Example 48] gave a pIC50 of 9.62. For the compound `COc1ccccc1CN(CC(Cc1csc2ccccc12)NC(=O)CN1CCN(c2ccccc2)CC1)C(C)=O` (centres unmarked) [Example 143], the pIC50 is 8.10. On the same count and under the same terms, the figure for `COc1ccccc1CN(CC(Cc1c[nH]c2ccccc12)NC(=O)CCc1ccccc1)C(C)=O` (centres unmarked) [Example 90] is 7.19. On the same count and under the same terms, the figure for `COc1ccc(CNCC(Cc2c[nH]c3ccccc23)NC(=O)CN2CCN(c3ccccc3)CC2)cc1` (centres unmarked) [Example 8] is 6.89; for `COc1ccccc1CNC[C@@H](Cc1c[nH]c2ccccc12)NC(=O)CN1CCN(c2ccccc2)CC1` [Example 5] it is 7.21; for `COc1ccccc1CN(CC(Cc1c[nH]c2ccccc12)NC(=O)OCc1ccccc1)C(C)=O` (centres unmarked) [Example 92] it is 7.01.

Consider `CC(=O)N(Cc1ccccc1Cl)CC(Cc1c[nH]c2ccccc12)NC(=O)CN1CCC(N2CCCCC2)CC1` (centres unmarked) [Example 49], for which the pIC50 is 6.87. `COc1ccccc1CN(CC(Cc1c[nH]c2ccc(Br)cc12)NC(=O)CN1CCC(N2CCCCC2)CC1)C(C)=O` (centres unmarked) [Example 129] gave a pIC50 of 8.07.

For the compound `COc1ccccc1CN(CC(C)(Cc1c[nH]c2ccccc12)NC(=O)CN1CCN(c2ccccc2)CC1)C(C)=O` (centres unmarked) [Example 133], the pIC50 is 7.94. Still for that read-out and setting: as for `COc1ccccc1CN(CC(Cc1c[nH]c2ccccc12)NC(=O)CSc1ccccc1)C(C)=O` (centres unmarked) [Example 57], the figure is 6.82.

`COc1ccccc1CNCC(Cc1c[nH]c2ccc(Br)cc12)NC(=O)CN1CCC(N2CCCCC2)CC1` (centres unmarked) [Example 120] had a pIC50 of 5.60. In turn, `COc1ccccc1CN(CC(C)(Cc1c[nH]c2ccccc12)NC(=O)CN1CCC(N2CCCCC2)CC1)C(C)=O` (centres unmarked) [Example 132] had a pIC50 of 8.38.

For the compound `COc1ccc2[nH]cc(CC(CN(Cc3ccccc3OC)C(C)=O)NC(=O)CN3CCN(c4ccccc4)CC3)c2c1` (centres unmarked) [Example 117], the negative-log IC50 (pIC50) is 7.48. Consider `COc1ccccc1CN(CC(Cc1c[nH]c2c(C)cccc12)NC(=O)CN1CCN(c2ccccc2)CC1)C(C)=O` (centres unmarked) [Example 115], for which the pIC50 was 7.81. The compound `COc1ccccc1CN(CC(Cc1c[nH]c2ccccc12)NC(=O)CCc1ccccc1)C(C)=O` (centres unmarked) [Example 91] had a pIC50 of 5.52.

For the compound `COc1ccccc1CN(CC(Cc1c[nH]c2ccc(OCc3ccccc3)cc12)NC(=O)CN1CCC(N2CCCCC2)CC1)C(C)=O` (centres unmarked) [Example 131], the pIC50 is 7.17. Still for that read-out and setting: as for `COc1ccccc1CN(C[C@@H](Cc1c[nH]c2ccccc12)NC(=O)CCC(=O)c1ccccc1)C(C)=O` [Example 96], the figure is 7.46. Still for that read-out and setting: as for `COc1cccc(CNCC(Cc2c[nH]c3ccccc23)NC(=O)CN2CCN(c3ccccc3)CC2)c1` (centres unmarked) [Example 7], the figure is 6.64; as for `CC(=O)N(Cc1ccccc1Cl)CC(Cc1c[nH]c2ccccc12)NC(=O)CN1CCN(c2ccccc2)CC1` (centres unmarked) [Example 13], 8.89; as for `O=C(CN1CCN(c2ccccc2)CC1)NC(CNCc1ccccc1Cl)Cc1c[nH]c2ccccc12` (centres unmarked) [Example 2, 1-[N-(2-chlorobenzyl)amino]-3-(1H-indol-3-yl)-2-[N-(2-((4-phenyl)piperazin-1-yl)acetyl)amino]propane], 7.44.

`COc1ccc2[nH]cc(CC(CN(Cc3ccccc3OC)C(C)=O)NC(=O)CN3CCC(N4CCCCC4)CC3)c2c1` (centres unmarked) [Example 130] gave a pIC50 of 7.72. On the same count and under the same terms, the figure for `COc1ccccc1CNCC(Cc1c[nH]c2ccc(OCc3ccccc3)cc12)NC(=O)CN1CCC(N2CCCCC2)CC1` (centres unmarked) [Example 122] is 6.26; for `COc1ccccc1CNCC(Cc1c[nH]c2ccc(OCc3ccccc3)cc12)NC(=O)CN1CCN(c2ccccc2)CC1` (centres unmarked) [Example 112] it is 6.57.

In turn, `COc1ccccc1CN(C[C@H](Cc1c[nH]c2ccccc12)NC(=O)CCC(=O)c1ccccc1)C(C)=O` [Example 97] showed a pIC50 of 5.89. Still for that read-out and setting: as for `COc1ccccc1CN(CC(Cc1c[nH]c2ccccc12)NC(=O)CBr)C(C)=O` (centres unmarked) [Example 55], the figure is 7.15. On the same count and under the same terms, the figure for `COc1ccc2[nH]cc(CC(CNCc3ccccc3OC)NC(=O)CN3CCC(N4CCCCC4)CC3)c2c1` (centres unmarked) [Example 121] is 6.07; for `COc1ccccc1CN(CC(Cc1csc2ccccc12)NC(=O)CN1CCC(N2CCCCC2)CC1)C(C)=O` (centres unmarked) [Example 149] it is 8.92; for `COc1ccccc1CN(CC(Cc1c[nH]c2cc(F)ccc12)NC(=O)CN1CCC(N2CCCCC2)CC1)C(C)=O` (centres unmarked) [Example 131a] it is 9.15. The same measure, in the same setting: as for `CC(=O)N(Cc1ccccc1Cl)CC(Cc1c[nH]c2ccccc12)NC(=O)CN1CCN(C2CCCCC2)CC1` (centres unmarked) [Example 87], the figure is 9.11; as for `COc1ccccc1CN(CC(Cc1c[nH]c2ccc(OCc3ccccc3)cc12)NC(=O)CN1CCN(c2ccccc2)CC1)C(C)=O` (centres unmarked) [Example 118], 6.51; as for `CC(=O)N(Cc1ccccc1Cl)CC(Cc1c[nH]c2ccccc12)NC(=O)CN1CCN(C(C)C)CC1` (centres unmarked) [Example 86], 9.44.
